Biological target: T1, Ubiquitin carboxyl-terminal hydrolase 30 (Homo sapiens, UniProt Q70CQ3)
T1 sequence (Q70CQ3 whole entry): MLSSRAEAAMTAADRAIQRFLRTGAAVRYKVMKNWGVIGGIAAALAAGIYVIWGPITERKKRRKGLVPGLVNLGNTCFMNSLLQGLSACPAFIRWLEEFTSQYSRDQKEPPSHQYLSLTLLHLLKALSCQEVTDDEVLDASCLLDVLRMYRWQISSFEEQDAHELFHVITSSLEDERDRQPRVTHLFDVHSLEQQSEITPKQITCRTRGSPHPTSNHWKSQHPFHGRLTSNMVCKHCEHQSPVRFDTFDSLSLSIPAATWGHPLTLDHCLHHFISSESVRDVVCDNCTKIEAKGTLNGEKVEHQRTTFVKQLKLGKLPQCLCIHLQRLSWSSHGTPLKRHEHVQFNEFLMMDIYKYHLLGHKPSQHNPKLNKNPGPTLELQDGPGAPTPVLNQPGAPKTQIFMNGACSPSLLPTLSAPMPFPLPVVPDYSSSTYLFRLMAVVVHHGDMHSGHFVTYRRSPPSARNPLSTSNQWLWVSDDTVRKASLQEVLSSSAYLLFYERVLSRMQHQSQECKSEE
Experiment: Biochemical Fluorescence Intensity Kinetic Assay/Biochemical Fluorescence Intensity Assay: USP30 Biochemical Fluorescence Intensity Kinetic Assay.Reactions were performed in duplicate in black 384 well plates (small volume, Greiner 784076) in a final reaction volume of 21 μl. USP30 CD (Boston Biochem E-582 or 57-517, #64-0057-050 Ubiquigent) was diluted in reaction buffer (40 mM Tris, pH 7.5, 0.005% Tween 20, 0.5 mg/ml BSA, 5 mM beta-mercaptoethanol) to the equivalent of 0, 0.0005, 0.001, 0.005, and 0.01 μl/well. Buffer was optimised for optimal temperature, pH, reducing agent, salts, time of incubation, and detergent. Reactions were initiated by the addition of Ubiquitin-Rhodamine 110 (U-555, Boston Biochem) at a final concentration of 100 nM. Reactions were incubated at room temperature and read every 2 min for 120 min. Readings were performed on a Pherastar Plus (BMG Labtech). […] A typical 8-point dilution series would be 100, 30, 10, 3, 1, 0.3, 0.1, 0.03 μM final. Reactions were performed in duplicate in black 384 well plates (small volume, Greiner 784076) in a final reaction volume of 21 μl. Either 1 μl of 50% DMSO or diluted compound was added to the plate. USP30 was diluted in reaction buffer (40 mM Tris, pH 7.5, 0.005% Tween 20, 0.5 mg/ml BSA, 5 mM beta-mercaptoethanol) to the equivalent of 0.001 μl/well and 10 μl of diluted USP30 was added to the compound. […]

Row | IC50 | SMILES
1 | in the range around 0.55 µM | N#CN1CC[C@@H](NC(=O)c2ccc(N3CCOCC3)cc2)C1
2 | in the range around 5.5 µM | N#CN1C[C@H]2CCN(C(=O)N3CCc4ccccc43)[C@H]2C1
